Test results taken from US9868746B2, “Substituted 5-aminothieno[2,3-C]pyridazine-6-carboxamide analogs as positive allosteric modulators of the muscarinic acetylcholine receptor M4” (Vanderbilt University, priority 2012, dated 2018).
Like-named read-outs stand apart in the source and are kept apart here.

Biological target: T1, mAChR M4 (Homo sapiens, UniProt P08173)
T1 construct: expressed in transfected cells; host or cells: CHO-K1 cells stably transfected with M4 cDNA and chimeric G-protein Gqi5
T1 sequence (P08173 1-479): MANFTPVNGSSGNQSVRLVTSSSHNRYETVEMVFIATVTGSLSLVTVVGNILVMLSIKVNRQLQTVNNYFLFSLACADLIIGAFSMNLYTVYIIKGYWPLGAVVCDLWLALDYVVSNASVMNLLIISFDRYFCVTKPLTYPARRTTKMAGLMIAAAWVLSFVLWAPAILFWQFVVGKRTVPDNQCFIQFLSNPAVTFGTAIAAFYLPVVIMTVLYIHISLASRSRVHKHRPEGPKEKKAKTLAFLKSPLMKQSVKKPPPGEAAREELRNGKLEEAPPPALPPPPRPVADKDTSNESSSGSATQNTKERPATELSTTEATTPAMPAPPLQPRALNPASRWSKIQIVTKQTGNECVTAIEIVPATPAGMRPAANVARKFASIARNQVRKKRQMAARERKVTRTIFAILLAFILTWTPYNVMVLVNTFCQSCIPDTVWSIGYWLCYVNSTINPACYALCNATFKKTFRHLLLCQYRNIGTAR
Test: mAChR M4 cell-based functional assay (calcium mobilization, potentiation of EC20 acetylcholine response)
Settings: for Emax at 30 µM: % ACh maximum at 30 μM

[1] = mAChR M4 cell-based functional assay, >10,000 estimated for low potency compounds without plateau, read-out: EC50

Structure (SMILES)	Emax at 30 µM [%]	EC50 [1] [nM]	EC50 (EC50 (nM)) [nM]
Cc1nnc2sc(C(=O)NCc3ncccn3)c(N)c2c1C [Example B3]	46	> 10000	
Cc1nnc2sc(C(=O)NCc3ccc(C(C)(O)C(F)(F)F)cc3)c(N)c2c1C (stereo not shown) [Example B106]	71	20	
Cc1nnc2sc(C(=O)NC3CCN(c4ccccc4Cl)C3)c(N)c2c1C (stereo not shown) [Example B264]	71	38	
Cc1nnc2sc(C(=O)N3CC(F)(c4ccccn4)C3)c(N)c2c1C [Example B303]	57	500	
Cc1nnc2sc(C(=O)Nc3ccc4cn[nH]c4c3)c(N)c2c1C [Example B67]	51	350	
Cc1nnc2sc(C(=O)N3CC(Cc4ccccc4)C3)c(N)c2c1C [Example B275]	65	200	
Cc1nnc2sc(C(=O)NC3CCN(c4ccccc4C(F)(F)F)C3)c(N)c2c1C (stereo not shown) [Example B284]	71	150	
Cc1nnc2sc(C(=O)NCc3ccc(S(=O)(=O)C(F)(F)F)cc3)c(N)c2c1C [Example B66]	62		
Cc1nnc2sc(C(=O)NCc3cccnc3)c(N)c2c1C [Example B316]	73	310	
Cc1nnc2sc(C(=O)N3CCC(NC(=O)C4CC4)C3)c(N)c2c1C (stereo not shown) [Example B236]	66	5000	
Cc1nnc2sc(C(=O)NCc3ccco3)c(N)c2c1C [Example B102]	81	1300	
Cc1nnc2sc(C(=O)NCC3CN(C(=O)OC(C)(C)C)C3)c(N)c2c1C [Example B197]	35	> 10000	
Cc1nnc2sc(C(=O)N3CCC(NC(=O)CCc4ccccc4)C3)c(N)c2c1C (stereo not shown) [Example B249]	48	> 10000	
Cc1nnc2sc(C(=O)NC3CCCOC3)c(N)c2c1C (stereo not shown) [Example B96]	64	> 10000	
COc1ccc(CNC(=O)c2sc3nnc4c(c3c2N)CCCC4)cc1 [Example B52]	54	77	
Cc1nnc2sc(C(=O)NCc3cccc(F)c3F)c(N)c2c1C [Example B15]	97	100	
CCCCCC(=O)NC1CCN(C(=O)c2sc3nnc(C)c(C)c3c2N)C1 (stereo not shown) [Example B218]	61	5000	
CCCOC(=O)NC1CN(C(=O)c2sc3nnc(C)c(C)c3c2N)C1 [Example B178]	60	1700	
Cc1nnc2sc(C(=O)NC3CCN(C(=O)Cc4cccs4)C3)c(N)c2c1C (stereo not shown) [Example B227]	76	920	
Cc1nnc2sc(C(=O)NC3CN(S(=O)(=O)c4ccco4)C3)c(N)c2c1C [Example B99]	65	160	

Structure (SMILES)	Emax at 30 µM [%]	EC50 [1] [nM]	EC50 (EC50 (nM)) [nM]
Cc1nc(C(F)(F)F)c(S(=O)(=O)N2CC(NC(=O)c3sc4nnc(C)c(C)c4c3N)C2)s1 [Example B101]	66	84	
Cc1nnc2sc(C(=O)NCc3ccc(S(=O)(=O)C(F)F)cc3)c(N)c2c1C [Example B117]	66		18
Cc1nnc2sc(C(=O)NC3CN(C(=O)N4CCCCC4)C3)c(N)c2c1C [Example B125]	58	1000	
Cc1nnc2sc(C(=O)N3CCC(O)(c4ccccc4)C3)c(N)c2c1C (stereo not shown) [Example B279]	48	4300	
Cc1nnc2sc(C(=O)NCc3ccc4ccccc4c3)c(N)c2c1C [Example B86]	62	80	
Cc1nnc2sc(C(=O)NC3CCN(C(=O)c4ccc(F)cc4F)C3)c(N)c2c1C (stereo not shown) [Example B228]	81	350	
Cc1nnc2sc(C(=O)NC3CCC3)c(N)c2c1C [Example B84]	61	1000	
Cc1nnc2sc(C(=O)N3CCC(c4ccccc4)CC3)c(N)c2c1C [Example B115]	38	3900	
Cc1nnc2sc(C(=O)NC3C4CC5CC(C4)CC3C5)c(N)c2c1C (stereo not shown) [Example B281]	62	2000	
Cc1nnc2sc(C(=O)NC3CN(C(=O)Oc4cccc(N=[N+]=[N-])c4)C3)c(N)c2c1C [Example B424]	68	7.9	
COC1(C)CN(C(=O)c2sc3nnc(C)c(C)c3c2N)C1 [Example B292]	62	> 10000	
Cc1nnc2sc(C(=O)NC3CCOC3)c(N)c2c1C (stereo not shown) [Example B35]	77	840	
Cc1nnc2sc(C(=O)NCc3ccc(S(C)(=O)=O)cc3)c(N)c2c1C [Example B23]	83	450	
Cc1nnc2sc(C(=O)N3CC(F)(c4ccc(-c5ccncc5)cc4)C3)c(N)c2c1C [Example B318]	35	290	
Cc1nnc2sc(C(=O)NC3CCN(c4ccccc4OC(F)(F)F)C3)c(N)c2c1C (stereo not shown) [Example B282]	80	220	
Cc1nnc2sc(C(=O)NC3CN(C(=O)c4ccccc4)C3)c(N)c2c1C [Example B160]	71	78	
Cc1nnc2sc(C(=O)NCc3ccc4c(c3)OCCO4)c(N)c2c1C [Example B29]	76	30	
Cc1nnc2sc(C(=O)N3CCC(c4ccccc4)C3)c(N)c2c1C (stereo not shown) [Example B112]	61	630	
COc1ccc(CNC2CN(C(=O)c3sc4nnc(C)c(C)c4c3N)C2)cc1 [Example B61]	55	4600	
Cc1nnc2sc(C(=O)NCc3ccc([S+](C)[O-])cc3)c(N)c2c1C (stereo not shown) [Example B34]	82		140

Second part, led by results:

Emax at 30 µM [%]	EC50 [1] [nM]	Structure (SMILES)	EC50 (EC50 (nM)) [nM]
58	48	COc1ncc(-c2ccc(CNC(=O)c3sc4nnc(C)c(C)c4c3N)cc2)cn1 [Example B485]	
51	4000	Cc1nnc2sc(C(=O)NCCN(C)S(=O)(=O)c3ccccc3)c(N)c2c1C [Example B375]	
46	750	COc1ccc(S(=O)(=O)C2CN(C(=O)c3sc4nnc(C)c(C)c4c3N)C2)cc1 [Example B417]	
41	> 10000	Cc1nnc2sc(C(=O)NCCN(C)S(C)(=O)=O)c(N)c2c1C [Example B344]	
51	88	Nc1c(C(=O)NCc2ccc(S(=O)(=O)CF)cc2)sc2nnc3c(c12)CCCC3 [Example B428]	
70	150	Cc1nnc2sc(C(=O)NCc3ccc(-c4ccc5occc5c4)cc3)c(N)c2c1C [Example B463]	
75	18	Cc1nnc2sc(C(=O)NCc3ccc(Br)cc3)c(N)c2c1C [Example B448, 5-amino-N-(4-bromobenzyl)-3,4-dimethylthieno[2,3-c]pyridazine-6-carboxamide]	
68	180	Cc1nnc2sc(C(=O)NCc3ccc(F)cc3)c(N)c2c1C [Example B435]	
53	200	Cc1nnc2sc(C(=O)NCc3cccc(OC(F)(F)F)c3)c(N)c2c1C [Example B410]	
58	3600	Cc1nnc2sc(C(=O)N3CC4CN(C(=O)c5ccc(F)cc5)CC4C3)c(N)c2c1C (stereo not shown) [Example B331]	
45	> 10000	Cc1nnc2sc(C(=O)N3CCC[C@H]3C)c(N)c2c1C [Example B382]	
47	1300	CCCCC(=O)N1CC2CN(C(=O)c3sc4nnc(C)c(C)c4c3N)CC2C1 (stereo not shown) [Example B389]	
64	430	COc1ccccc1C(=O)N1CC(NC(=O)c2sc3nnc(C)c(C)c3c2N)C1 [Example B397]	
50	72	Cc1nnc2sc(C(=O)N3CC(F)(c4ccc(S(=O)(=O)C(F)F)cc4)C3)c(N)c2c1C [Example B377]	
69	1200	Cc1nnc2sc(C(=O)NCc3ccnc(C#N)c3)c(N)c2c1C [Example B467]	
52	> 10000	Cc1nnc2sc(C(=O)NCCNC(=O)C3CC3)c(N)c2c1C [Example B367]	
59	240	Cc1nnc2sc(C(=O)NCc3ccnc(F)c3)c(N)c2c1C [Example B452]	
58	1600	Cc1nnc2sc(C(=O)N3CC4CN(C(=O)C5CC5)CC4C3)c(N)c2c1C (stereo not shown) [Example B332]	
71	1100	Cc1nnc2sc(C(=O)N3CC(F)(c4ccc([S+](C)[O-])cc4)C3)c(N)c2c1C (stereo not shown) [Example B384]	
49	980	Cc1nnc2sc(C(=O)N3CC4CN(C(=O)Oc5ccccc5)CC4C3)c(N)c2c1C (stereo not shown) [Example B336]	
67	78	Cc1nnc2sc(C(=O)NCc3ccc(-n4cncn4)cc3)c(N)c2c1C [Example B511]	
51	510	Cc1nnc2sc(C(=O)N3CC(F)(c4ccc(S(C)(=O)=O)cc4)C3)c(N)c2c1C [Example B383]	
64	18	Cc1nnc2sc(C(=O)NC3CN(C(=O)Nc4ccccc4)C3)c(N)c2c1C [Example B362]	
68	99	COc1ncccc1-c1ccc(CNC(=O)c2sc3nnc(C)c(C)c3c2N)cc1 [Example B456]	
